Experimental data reported in ChEMBL document CHEMBL5365424, “Development of a highly potent and selective degrader of LRRK2” (Bioorg Med Chem Lett, 2023).
Each block holds one compound with its values, some of them ahead of it. The source made the active and inactive calls. The calls are words filed in the database; no cut-off is given here.

How the values were obtained:
[1] = target: T1, Protein cereblon/Leucine-rich repeat serine/threonine-protein kinase 2 (Mus musculus) (UniProt Q5S006+Q8C7D2); test: Protac activity at CRBN/LRRK2 in MEF cells assessed as induction of LRRK2 degradation at 10 to 1000 nM incubated for 1 to 48 hrs by Western blot analysis; format: cell-based; conditions: dose 10-1000 nM, time 1-48 hrs
[2] = target: T2, Leucine-rich repeat serine/threonine-protein kinase 2 (Homo sapiens, UniProt Q5S007); test: Inhibition of recombinant human GST-tagged LRRK2 (970 to 2527 residues) expressed in insect cells using LRRKtide as substrate measured after 1 hr by Adapta TR-FRET assay; design: species or system Insect cell
T2 sequence (Q5S007 whole entry, the tested form may be a part): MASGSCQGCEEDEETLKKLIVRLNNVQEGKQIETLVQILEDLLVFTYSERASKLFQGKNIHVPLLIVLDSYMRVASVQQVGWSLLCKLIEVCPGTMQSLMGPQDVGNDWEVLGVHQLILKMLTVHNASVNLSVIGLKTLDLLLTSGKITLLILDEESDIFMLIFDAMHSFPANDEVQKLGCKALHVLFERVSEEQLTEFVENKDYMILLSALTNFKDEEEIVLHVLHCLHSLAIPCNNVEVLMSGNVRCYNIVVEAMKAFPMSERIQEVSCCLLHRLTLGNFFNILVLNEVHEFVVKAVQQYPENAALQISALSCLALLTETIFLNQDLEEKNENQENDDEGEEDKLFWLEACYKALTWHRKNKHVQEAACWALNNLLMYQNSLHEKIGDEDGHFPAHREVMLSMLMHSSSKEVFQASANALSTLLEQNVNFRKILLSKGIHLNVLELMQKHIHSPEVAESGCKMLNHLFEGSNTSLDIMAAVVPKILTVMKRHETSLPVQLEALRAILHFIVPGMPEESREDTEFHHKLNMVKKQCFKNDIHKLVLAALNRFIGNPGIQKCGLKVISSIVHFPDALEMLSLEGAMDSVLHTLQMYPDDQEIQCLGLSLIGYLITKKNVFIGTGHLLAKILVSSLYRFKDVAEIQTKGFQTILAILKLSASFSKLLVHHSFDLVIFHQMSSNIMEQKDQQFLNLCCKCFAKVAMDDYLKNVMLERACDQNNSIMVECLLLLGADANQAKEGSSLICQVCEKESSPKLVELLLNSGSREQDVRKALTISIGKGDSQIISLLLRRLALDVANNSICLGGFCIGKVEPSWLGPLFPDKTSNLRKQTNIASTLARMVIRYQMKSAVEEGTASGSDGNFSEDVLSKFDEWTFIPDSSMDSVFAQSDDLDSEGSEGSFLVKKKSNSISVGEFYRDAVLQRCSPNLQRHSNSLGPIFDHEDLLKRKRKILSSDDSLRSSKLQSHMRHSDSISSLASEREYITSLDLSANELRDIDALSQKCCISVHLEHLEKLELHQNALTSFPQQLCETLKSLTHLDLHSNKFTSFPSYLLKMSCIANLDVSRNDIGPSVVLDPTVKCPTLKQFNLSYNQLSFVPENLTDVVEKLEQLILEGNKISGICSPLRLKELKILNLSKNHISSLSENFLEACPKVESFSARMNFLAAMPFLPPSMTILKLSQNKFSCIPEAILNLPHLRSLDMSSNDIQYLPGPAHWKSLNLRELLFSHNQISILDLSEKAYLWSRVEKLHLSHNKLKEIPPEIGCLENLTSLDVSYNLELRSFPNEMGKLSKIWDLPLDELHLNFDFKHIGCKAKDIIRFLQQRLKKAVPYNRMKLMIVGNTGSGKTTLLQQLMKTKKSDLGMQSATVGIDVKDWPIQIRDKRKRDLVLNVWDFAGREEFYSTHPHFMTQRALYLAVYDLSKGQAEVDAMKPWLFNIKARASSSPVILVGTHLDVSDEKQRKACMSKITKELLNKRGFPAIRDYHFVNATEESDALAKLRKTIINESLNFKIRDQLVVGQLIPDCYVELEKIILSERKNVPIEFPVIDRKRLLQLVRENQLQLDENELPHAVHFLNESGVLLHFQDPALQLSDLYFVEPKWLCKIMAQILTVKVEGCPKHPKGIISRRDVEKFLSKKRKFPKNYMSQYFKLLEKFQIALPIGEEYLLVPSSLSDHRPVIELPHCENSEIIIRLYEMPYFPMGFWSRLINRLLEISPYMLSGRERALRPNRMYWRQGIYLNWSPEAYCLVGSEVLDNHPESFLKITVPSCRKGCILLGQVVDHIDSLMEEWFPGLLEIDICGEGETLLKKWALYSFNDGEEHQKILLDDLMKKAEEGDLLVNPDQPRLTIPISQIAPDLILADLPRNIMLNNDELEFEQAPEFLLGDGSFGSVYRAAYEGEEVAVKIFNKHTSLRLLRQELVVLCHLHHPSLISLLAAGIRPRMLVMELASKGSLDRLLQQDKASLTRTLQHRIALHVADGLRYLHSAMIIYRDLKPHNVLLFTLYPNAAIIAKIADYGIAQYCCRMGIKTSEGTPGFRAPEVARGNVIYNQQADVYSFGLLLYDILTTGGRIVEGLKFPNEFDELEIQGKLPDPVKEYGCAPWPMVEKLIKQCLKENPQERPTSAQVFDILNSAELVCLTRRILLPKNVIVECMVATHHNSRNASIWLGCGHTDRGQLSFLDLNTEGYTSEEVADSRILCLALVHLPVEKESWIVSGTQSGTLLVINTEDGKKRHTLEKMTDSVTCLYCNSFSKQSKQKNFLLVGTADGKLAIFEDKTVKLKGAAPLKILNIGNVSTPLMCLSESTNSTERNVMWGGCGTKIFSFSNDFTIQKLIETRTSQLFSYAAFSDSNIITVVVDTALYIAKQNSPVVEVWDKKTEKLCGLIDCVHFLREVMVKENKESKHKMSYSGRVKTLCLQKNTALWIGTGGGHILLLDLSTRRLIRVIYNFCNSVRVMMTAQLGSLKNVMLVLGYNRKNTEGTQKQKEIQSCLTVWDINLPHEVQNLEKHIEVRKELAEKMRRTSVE

[3] = target: Leucine-rich repeat serine/threonine-protein kinase 2 (Homo sapiens, UniProt Q5S007, G2019S); test: Inhibition of recombinant human GST-tagged LRRK2 G2019S mutant (970 to 2527 residues) expressed in insect cells using LRRKtide as substrate measured after 1 hr by Adapta TR-FRET assay; design: species or system Insect cell
Leucine-rich repeat serine/threonine-protein kinase 2 (Homo sapiens, UniProt Q5S007, G2019S), sequence (Q5S007 whole entry G2019S, the tested form may be a part): as the sequence (Q5S007 whole entry, the tested form may be a part) above, with G2019S counted along it

[4] = target: Leucine-rich repeat serine/threonine-protein kinase 2 (Mus musculus) (UniProt Q5S006); test: Induction of LRRK2 degradation in MEF cells at 100 nM measured after 2 hrs by Western blot analysis; format: cell-based
[5] = target: von Hippel-Lindau disease tumor suppressor/Leucine-rich repeat serine/threonine-protein kinase 2 (Mus musculus) (UniProt Q5S006+P40338); test: Protac activity at VHL/LRRK2 in MEF cells assessed as induction of LRRK2 degradation measured after 48 hrs by Western blot analysis; format: cell-based
[6] = test system: von Hippel-Lindau disease tumor suppressor/Leucine-rich repeat serine/threonine-protein kinase 2 (Mus musculus), Q5S006+P40338 [R1441C]; test: Protac activity at VHL/LRRK2 R1441C mutant in MEF cells assessed as induction of LRRK2 degradation incubated for 48 hrs by Western blot analysis; format: cell-based
[7] = target: Leucine-rich repeat serine/threonine-protein kinase 2 (Mus musculus) (UniProt Q5S006); test: Inhibition of LRRK2 in MEF cells assessed as reduction in pS935 phosphorylation measured after 24 to 48 hrs by Western blot analysis; format: cell-based; conditions: time 24-48 hrs
[8] = test system: Protein cereblon/Leucine-rich repeat serine/threonine-protein kinase 2 (Mus musculus), Q5S006+Q8C7D2 [R1441C]; test: Protac activity at CRBN/LRRK2 R1441C mutant in MEF cells assessed as induction of LRRK2 degradation at 1 uM incubated for 48 hrs in presence of MLi-2 by Western blot analysis; format: cell-based
[9] = target: Protein cereblon/E3 ubiquitin-protein ligase ZFP91 (Homo sapiens) (UniProt Q96SW2+Q96JP5); test: Protac activity at CRBN/ZFP91 in human MOLT-4 cells assessed as induction of ZFP91 degradation at 1 uM by proteomic analysis; format: cell-based
[10] = test system: Protein cereblon/Leucine-rich repeat serine/threonine-protein kinase 2 (Mus musculus), Q5S006+Q8C7D2 [R1441C]; test: Protac activity at CRBN/LRRK2 R1441C mutant in MEF cells assessed as induction of LRRK2 degradation at 1 uM incubated for 48 hrs by Western blot analysis; format: cell-based
[11] = test system: Leucine-rich repeat serine/threonine-protein kinase 2 (Homo sapiens), Q5S007 [G2019S]; test: Inhibition of human partial length LRRK2 G2019S mutant (H970 to E2527 residues) expressed in mammalian expression system at 1 uM by Kinomescan assay relative to control
Leucine-rich repeat serine/threonine-protein kinase 2 (Homo sapiens), Q5S007 [G2019S], sequence (Q5S007 whole entry G2019S, the tested form may be a part): as the sequence (Q5S007 whole entry, the tested form may be a part) above, with G2019S counted along it

[12] = target: T1, Protein cereblon/Leucine-rich repeat serine/threonine-protein kinase 2 (Mus musculus); test: Protac activity at CRBN/LRRK2 in MEF cells assessed as induction of LRRK2 degradation at 1 uM incubated for 48 hrs by Western blot analysis; format: cell-based
[13] = target: Cereblon/Ikaros (Homo sapiens) (UniProt Q96SW2+Q13422); test: Protac activity at CRBN/IKZF1 in human MOLT-4 cells assessed as induction of IKZF1 degradation at 1 uM by proteomic analysis; format: cell-based
[14] = target: Protein cereblon/Cyclin-G-associated kinase (Homo sapiens) (UniProt O14976+Q96SW2); test: Protac activity at CRBN/GAK in human MOLT-4 cells assessed as induction of GAK degradation at 1 uM by proteomic analysis; format: cell-based
[15] = target: Protein cereblon/Zinc finger protein Aiolos (Homo sapiens) (UniProt Q96SW2+Q9UKT9); test: Protac activity at CRBN/IKZF3 in human MOLT-4 cells assessed as induction of IKZF3 degradation at 1 uM by proteomic analysis; format: cell-based
[16] = target: T1, Protein cereblon/Leucine-rich repeat serine/threonine-protein kinase 2 (Mus musculus); test: Protac activity at CRBN/LRRK2 in MEF cells assessed as induction of LRRK2 degradation at 1000 nM incubated for 48 hrs by Western blot analysis; format: cell-based
[17] = target: T2, Leucine-rich repeat serine/threonine-protein kinase 2; test: Inhibition of human wild-type partial length LRRK2 (H970 to E2527 residues) expressed in mammalian expression system at 1 uM by Kinomescan assay relative to control
[18] = target: Protein cereblon/Leucine-rich repeat serine/threonine-protein kinase 2 (Homo sapiens) (UniProt Q5S007+Q96SW2); test: Protac activity at CRBN/LRRK2 in human MOLT-4 cells assessed as induction of LRRK2 degradation at 1 uM by proteomic analysis; format: cell-based
Protein cereblon/Leucine-rich repeat serine/threonine-protein kinase 2 (Homo sapiens), sequence (Q5S007 whole entry, looked up): as the sequence (Q5S007 whole entry, the tested form may be a part) above
Protein cereblon/Leucine-rich repeat serine/threonine-protein kinase 2 (Homo sapiens), sequence (Q96SW2 whole entry, looked up): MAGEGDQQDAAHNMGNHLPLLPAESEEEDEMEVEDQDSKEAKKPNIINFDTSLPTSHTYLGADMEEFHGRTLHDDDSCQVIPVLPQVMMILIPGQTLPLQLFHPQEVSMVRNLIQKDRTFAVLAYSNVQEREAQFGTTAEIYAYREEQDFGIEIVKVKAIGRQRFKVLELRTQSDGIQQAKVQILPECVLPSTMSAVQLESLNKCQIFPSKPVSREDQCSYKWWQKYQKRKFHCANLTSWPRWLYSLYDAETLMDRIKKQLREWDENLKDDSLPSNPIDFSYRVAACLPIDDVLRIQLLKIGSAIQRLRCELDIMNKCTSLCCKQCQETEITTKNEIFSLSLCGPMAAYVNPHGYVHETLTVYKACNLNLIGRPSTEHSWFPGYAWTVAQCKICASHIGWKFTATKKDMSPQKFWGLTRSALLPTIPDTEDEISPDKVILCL

[19] = target: Leucine-rich repeat serine/threonine-protein kinase 2 (Mus musculus) (UniProt Q5S006); test: Inhibition of LRRK2 in MEF cells assessed as reduction in Rab10 phosphorylation at 10 to 1000 nM measured after 24 to 48 hrs by Western blot analysis; format: cell-based; conditions: dose 10-1000 nM, time 24-48 hrs
[20] = target: T1, Protein cereblon/Leucine-rich repeat serine/threonine-protein kinase 2 (Mus musculus); test: Protac activity at CRBN/LRRK2 in MEF cells assessed as induction of LRRK2 degradation at 1 uM incubated for 48 hrs in presence of cereblon degrader ZXH-03-153 by Western blot analysis; format: cell-based
[21] = target: Leucine-rich repeat serine/threonine-protein kinase 2 (Mus musculus) (UniProt Q5S006); test: Inhibition of LRRK2 in MEF cells assessed as reduction in pS935 phosphorylation at 10 to 1000 nM measured after 24 to 48 hrs by Western blot analysis; format: cell-based; conditions: dose 10-1000 nM, time 24-48 hrs
[22] = target: T1, Protein cereblon/Leucine-rich repeat serine/threonine-protein kinase 2 (Mus musculus); test: Protac activity at CRBN/LRRK2 in MEF cells assessed as induction of LRRK2 degradation at 1 uM incubated for 48 hrs in the presence of MLi-2 by Western blot analysis; format: cell-based
[23] = test system: Protein cereblon/Leucine-rich repeat serine/threonine-protein kinase 2 (Mus musculus), Q5S006+Q8C7D2 [R1441C]; test: Protac activity at CRBN/LRRK2 R1441C mutant in MEF cells assessed as induction of LRRK2 degradation at 1 uM incubated for 48 hrs in presence of cereblon degrader ZXH-03-153 by Western blot analysis; format: cell-based
[24] = target: T3, Protein cereblon/Cyclin-G-associated kinase (Mus musculus) (UniProt Q8C7D2+Q99KY4); test: Protac activity at CRBN/GAK in LRRK2 knockout MEF cells assessed as induction of GAK degradation at 1 uM measured after 48 hrs by Western blot analysis; format: cell-based
T3 sequence (Q8C7D2 whole entry, looked up): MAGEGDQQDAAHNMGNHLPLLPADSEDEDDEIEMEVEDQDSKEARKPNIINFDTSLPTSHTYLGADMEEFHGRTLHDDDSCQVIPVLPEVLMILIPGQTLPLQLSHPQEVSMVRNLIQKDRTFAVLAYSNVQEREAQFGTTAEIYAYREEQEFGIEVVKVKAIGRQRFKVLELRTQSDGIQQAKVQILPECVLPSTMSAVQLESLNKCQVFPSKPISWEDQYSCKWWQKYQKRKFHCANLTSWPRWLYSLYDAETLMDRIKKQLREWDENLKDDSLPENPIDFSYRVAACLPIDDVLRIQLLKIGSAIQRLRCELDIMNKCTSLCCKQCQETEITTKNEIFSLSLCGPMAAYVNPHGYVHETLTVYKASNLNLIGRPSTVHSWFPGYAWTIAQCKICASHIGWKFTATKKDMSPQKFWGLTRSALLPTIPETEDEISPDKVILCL
T3 sequence (Q99KY4 whole entry, looked up): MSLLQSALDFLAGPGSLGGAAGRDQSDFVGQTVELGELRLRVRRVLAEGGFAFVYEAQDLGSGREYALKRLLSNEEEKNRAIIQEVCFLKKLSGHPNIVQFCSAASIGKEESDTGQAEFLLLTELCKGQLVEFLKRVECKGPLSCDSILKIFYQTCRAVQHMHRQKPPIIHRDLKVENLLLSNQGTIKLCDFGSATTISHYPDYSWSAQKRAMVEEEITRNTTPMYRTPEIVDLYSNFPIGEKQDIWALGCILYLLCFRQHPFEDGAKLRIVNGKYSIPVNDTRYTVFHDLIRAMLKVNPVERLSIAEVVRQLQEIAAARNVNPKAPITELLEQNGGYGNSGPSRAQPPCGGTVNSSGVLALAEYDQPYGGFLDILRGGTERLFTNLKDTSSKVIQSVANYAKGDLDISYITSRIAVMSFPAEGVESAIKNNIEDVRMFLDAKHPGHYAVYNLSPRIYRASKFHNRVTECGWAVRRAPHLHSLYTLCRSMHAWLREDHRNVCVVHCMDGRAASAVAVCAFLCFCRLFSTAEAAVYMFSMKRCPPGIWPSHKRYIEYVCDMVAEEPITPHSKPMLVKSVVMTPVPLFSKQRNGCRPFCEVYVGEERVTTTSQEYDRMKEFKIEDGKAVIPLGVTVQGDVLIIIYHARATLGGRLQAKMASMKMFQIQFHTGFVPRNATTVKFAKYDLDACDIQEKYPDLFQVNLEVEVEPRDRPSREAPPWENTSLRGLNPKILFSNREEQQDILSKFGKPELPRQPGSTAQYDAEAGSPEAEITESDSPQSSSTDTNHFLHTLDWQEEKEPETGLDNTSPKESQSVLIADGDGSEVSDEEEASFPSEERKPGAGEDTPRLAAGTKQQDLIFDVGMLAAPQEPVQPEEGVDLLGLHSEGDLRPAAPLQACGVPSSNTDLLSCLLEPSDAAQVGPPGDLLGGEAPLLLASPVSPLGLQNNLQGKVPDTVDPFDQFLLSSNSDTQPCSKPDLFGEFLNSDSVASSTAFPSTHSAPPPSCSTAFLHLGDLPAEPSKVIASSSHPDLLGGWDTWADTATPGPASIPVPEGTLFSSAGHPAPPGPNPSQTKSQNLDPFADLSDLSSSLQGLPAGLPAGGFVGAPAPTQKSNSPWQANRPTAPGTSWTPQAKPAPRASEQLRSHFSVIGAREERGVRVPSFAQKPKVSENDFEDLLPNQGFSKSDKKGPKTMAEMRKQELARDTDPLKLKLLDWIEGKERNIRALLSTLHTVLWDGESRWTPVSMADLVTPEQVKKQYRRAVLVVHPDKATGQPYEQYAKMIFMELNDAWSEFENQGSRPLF

[25] = target: T3, Protein cereblon/Cyclin-G-associated kinase (Mus musculus); test: Protac activity at CRBN/GAK in MEF cells assessed as induction of GAK degradation at 1 uM measured after 48 hrs by Western blot analysis; format: cell-based
[26] = target: T3, Protein cereblon/Cyclin-G-associated kinase (Mus musculus); test: Induction of GAK degradation in MEF cells at 1 uM measured after 48 hrs by Western blot analysis; format: cell-based
[27] = target: Leucine-rich repeat serine/threonine-protein kinase 2 (Mus musculus) (UniProt Q5S006); test: Induction of LRRK2 degradation in MEF cells by Western blot analysis; format: cell-based

SMILES: Nc1cccc2c1CN(C1CCC(=O)NC1=O)C2=O (stereo not drawn)
Activity [1]: Active

SMILES: CC1(Oc2ccc3[nH]nc(-c4cc(N5CCN(C(=O)CCOCCOCCOCCOCCNc6cccc7c6C(=O)N(C6CCC(=O)NC6=O)C7)CC5)ncn4)c3c2)CC1 (stereo not drawn)
IC50 [2]: 3 nM | IC50 [3]: 3 nM | Activity [1]: Active

SMILES: CC1(Oc2ccc3[nH]nc(-c4cc(N5CCN(C(=O)CCOCCOCCNc6cccc7c6C(=O)N(C6CCCNC6=O)C7=O)CC5)ncn4)c3c2)CC1 (stereo not drawn)
Activity [5]: inactive | Activity [6]: inactive | IC50 [2]: 2 nM | IC50 [3]: 2 nM | inhibition [7]: Active

SMILES: CC1(Oc2ccc3[nH]nc(-c4cc(N5CCN(C(=O)CCOCCOCCOCCOCCNc6cccc7c6C(=O)N(C6CCC(=O)NC6=O)C7=O)CC5)ncn4)c3c2)CC1 (stereo not drawn)
Activity [8]: inactive | Activity [9]: Active | Activity [10]: Active | inhibition [11]: > 85% | Activity [12]: Active | Activity [13]: Active | Activity [14]: Active | Activity [15]: Active | Activity [16]: Active | IC50 [2]: 1 nM | inhibition [17]: > 85% | Activity [18]: Active | inhibition [19]: Active | Activity [20]: inactive | IC50 [3]: 1 nM | inhibition [21]: Active | Activity [22]: inactive | Activity [23]: inactive | Activity [24]: Active | Activity [25]: Active

SMILES: Cc1ncsc1-c1ccc([C@@H](C)NC(=O)[C@H]2C[C@H](O)CN2C(=O)[C@H](NC(=O)CCOCCOCCOCCC(=O)N2CCN(c3cc(-c4n[nH]c5ccc(OC6(C)CC6)cc45)ncn3)CC2)C(C)(C)C)cc1
IC50 [2]: 6 nM | IC50 [3]: 7 nM

SMILES: CC1(Oc2ccc3[nH]nc(-c4cc(N5CCN(C(=O)CCOCCNc6cccc7c6C(=O)N(C6CCC(=O)NC6=O)C7)CC5)ncn4)c3c2)CC1 (stereo not drawn)
IC50 [2]: 3 nM | IC50 [3]: 2 nM | Activity [1]: Active

More lines, now with the values ahead:

Activity [4]: Active
SMILES: O=C1CCC(N2C(=O)c3cccc(NCCCCCNc4cccc5c4C(=O)N(C4CCC(=O)NC4=O)C5=O)c3C2=O)C(=O)N1 (stereo not drawn)

IC50 [2]: 3 nM | IC50 [3]: 2 nM | Activity [1]: Active
SMILES: CC1(Oc2ccc3[nH]nc(-c4cc(N5CCN(C(=O)CCOCCOCCNc6cccc7c6C(=O)N(C6CCC(=O)NC6=O)C7)CC5)ncn4)c3c2)CC1 (stereo not drawn)

IC50 [2]: 2 nM | IC50 [3]: 1 nM | Activity [1]: Active
SMILES: CC1(Oc2ccc3[nH]nc(-c4cc(N5CCN(C(=O)CCOCCNc6cccc7c6C(=O)N(C6CCC(=O)NC6=O)C7=O)CC5)ncn4)c3c2)CC1 (stereo not drawn)

Activity [26]: inactive | Activity [27]: inactive
SMILES: C[C@@H]1CN(c2cc(-c3n[nH]c4ccc(OC5(C)CC5)cc34)ncn2)C[C@H](C)O1

Activity [16]: Active | IC50 [2]: 1 nM | IC50 [3]: 1 nM
SMILES: CC1(Oc2ccc3[nH]nc(-c4cc(N5CCN(C(=O)CCOCCOCCNc6cccc7c6C(=O)N(C6CCC(=O)NC6=O)C7=O)CC5)ncn4)c3c2)CC1 (stereo not drawn)

IC50 [2]: 3 nM | IC50 [3]: 4 nM
SMILES: Cc1ncsc1-c1ccc([C@H](C)NC(=O)[C@@H]2C[C@@H](O)CN2C(=O)[C@@H](NC(=O)CCOCCOCCOCCOCCC(=O)N2CCN(c3cc(-c4n[nH]c5ccc(OC6(C)CC6)cc45)ncn3)CC2)C(C)(C)C)cc1
